{"source": "patent US12006321B2", "about": "“Substituted pyrazolo[1,5-a]pyrimidines as apelin receptor agonists” (Sanford Burnham Prebys Medical Discovery Institute, priority 2017, dated 2024)", "data": [{"target": "T1, human apelin receptor (APJ, APLNR) (Homo sapiens, UniProt P35414)", "T1 construct": "host or cells: Chinese hamster ovary (CHO) cells, stably integrated receptor", "T1 sequence (P35414 1-380)": "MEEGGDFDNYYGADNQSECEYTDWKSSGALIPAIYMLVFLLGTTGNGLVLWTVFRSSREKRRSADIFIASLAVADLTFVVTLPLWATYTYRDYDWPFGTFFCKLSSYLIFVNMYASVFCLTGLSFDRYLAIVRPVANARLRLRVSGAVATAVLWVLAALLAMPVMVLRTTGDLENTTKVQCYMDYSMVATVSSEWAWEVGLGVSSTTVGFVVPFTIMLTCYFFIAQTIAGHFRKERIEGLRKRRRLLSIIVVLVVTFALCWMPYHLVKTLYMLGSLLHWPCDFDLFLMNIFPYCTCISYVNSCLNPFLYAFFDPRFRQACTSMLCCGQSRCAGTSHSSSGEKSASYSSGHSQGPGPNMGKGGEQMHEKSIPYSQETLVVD", "experiment": "cell-based cAMP assay (TR-FRET) in Chinese hamster ovary cells expressing the apelin receptor", "settings": "EC50 = 50% of control (apelin-13, 1 nM) response; cAMP in CHO cells, 0.5 h incubation; read-out: Potency Category", "protocol": "This example illustrates the biological activity of various compounds tested against the APJ receptor.\nCommercially available cell lines were used to screen chemical libraries to identify compounds that potently and selectively activated the human apelin receptor. The assays disclosed herein were performed using cell lines from DiscoveX, Inc.\nBiological activity was determined to the cell-based assay. This assay detects activation of the receptor by reporting on intracellular cyclic adenosine monophosphate (cAMP) level. Chinese hamster ovary cells engineered to express the stably integrated human appellant receptor (APJ, AGTRL-one, APLNR), pleaded into the wells of the microtiter plate. Cells were stimulated with […] to increase intracellular cyclic AMP. Immediately following, compounds were added to the range of final concentrations 0.0-100 μM, in DMSO (not to exceed a final DMSO concentration greater than 1% v/v), and allowed to incubate with the cells for 0.5 h. At the end of the incubation, cells were lysed to stop APJ signaling and cAMP was quantified using a commercially available competitive immunoassay kit that applies homogenous time-resolved florescence energy transfer (TR-FRET). The assay is based on the competition between a europium (Eu) chelate-labeled cAMP donor tracer and cellular cAMP for binding sites on a cAMP-specific monoclonal antibody labeled with an acceptor fluorophore. When antibodies are bound to the cAMP tracer light emissions at 320 nm stimulate the energy transfer from the donor to the acceptor, which in turn emits light at 665 nm. In the presence of competitive unlabeled cAMP (derived from the activity of the receptor or forskolin-stimulated production of cAMP), the labelled cAMP tracer is dissociated from the cAMP antibody, resulting in a loss of FRET signal. The amount of light emitted by the FRET is inversely proportional to the cAMP generated by the cell/receptor system. Potency and efficacy at APJ are reported in reference to the canonical APJ receptor agonist apelin-13 when tested at 1 nM.\nCompound competency is reported as the effective concentration required to effect 50% (EC 50) of the control (apelin—13, 1 nM) response in micromole are (μM) units. Compound efficacy (% response) is reported as a percentage of the maximal apein-13 response at 1 nM (control). Potencies were calculated by fitting a four-point logistic curve to concentration response consisting of at least 10 discrete data points spanning effective range of the compounds in the cell-based assay that measures cAMP. In Table 1, the Potency Categories are A, B, C and D. Category A EC50>500 nM; Category B 200<EC50<500 nM; Category C 100<EC50<200 nM; Category D<100 nM.", "units": {"EC50": "µM"}, "values": [{"smiles": "CCOC(=O)c1cc(C2CCC2)n2nc(C)c(-c3c(C)cccc3C)c2n1", "note": "[Compound 60, ethyl 3-(2,6-dimethylphenyl)-7-cyclobutyl-2-methyl-8-hydropyrazolo[1,5-a]pyrimidine-5-carboxylate]", "EC50": "> 0.5"}, {"smiles": "Cc1cccc(C)c1-c1c(C)nn2c(C3CCC3)cc(C(=O)O)nc12", "note": "[Compound 61, 3-(2,6-dimethylphenyl)-7-cyclobutyl-2-methyl-8-hydropyrazolo[1,5-a]pyrimidine-5-carboxylic acid]", "EC50": "0.1 to 0.2"}, {"smiles": "Cc1cccc(C)c1-c1c(C)nn2c(C(C)C)cc(CO)nc12", "note": "[Compound 62, [3-(2,6-dimethylphenyl)-2-methyl-7-(methylethyl)-8-hydropyrazolo[1,5-a]pyrimidin-5-yl]methan-1-ol]", "EC50": "> 0.5"}, {"smiles": "Cc1cccc(C)c1-c1c(C)nn2c(C(C)C)cc(C(O)C(F)(F)F)nc12", "note": "(centres unmarked) [Compound 63, 1-[3-(2,6-dimethylphenyl)-2-methyl-7-(methylethyl)(8-hydropyrazolo[1,5-a]pyrimidin-5-yl)]-2,2,2-trifluoroethan-1-ol]", "EC50": "> 0.5"}, {"smiles": "Cc1cccc(C)c1-c1c(C)nn2c(C(C)C)cc(C(=O)C(F)(F)F)nc12", "note": "[Compound 64, 1-[3-(2,6-dimethylphenyl)-2-methyl-7-(methylethyl)(8-hydropyrazolo[1,5-a]pyrimidin-5-yl)]-2,2,2-trifluoroethan-1-one]", "EC50": "> 0.5"}, {"smiles": "CCOC(=O)c1cc(C(C)C)n2nc(C)c(-c3c(C)cccc3OC)c2n1", "note": "[Compound 65, ethyl 3-(6-methoxy-2-methylphenyl)-2-methyl-7-(methylethyl)-8-hydropyrazolo[1,5-a]pyrimidine-5-carboxylate]", "EC50": "> 0.5"}, {"smiles": "CCOC(=O)c1cc(C(C)C)n2nc(C)c(-c3c(C)cc(Cl)cc3C)c2n1", "note": "[Compound 66, ethyl 3-(4-chloro-2,6-dimethylphenyl)-2-methyl-7-(methylethyl)-8-hydropyrazolo[1,5-a]pyrimidine-5-carboxylate]", "EC50": "> 0.5"}, {"smiles": "CCOC(=O)c1cc(C(C)C)n2nc(C)c(-c3c(C)cccc3C(=O)OCC)c2n1", "note": "[Compound 67, ethyl 3-[2-(ethoxycarbonyl)-6-methylphenyl]-2-methyl-7-(methylethyl)-8-hydropyrazolo[1,5-a]pyrimidine-5-carboxylate]", "EC50": "> 0.5"}, {"smiles": "Cc1cccc(C)c1-c1c(C)nn2c(C3CCCC3)cc(C(=O)O)nc12", "note": "[Compound 68, 3-(2,6-dimethylphenyl)-7-cyclopentyl-2-methyl-8-hydropyrazolo[1,5-a]pyrimidine-5-carboxylic acid]", "EC50": "0.2 to 0.5"}, {"smiles": "CCOC(=O)c1cc(C2CCCC2)n2nc(C)c(-c3c(C)cccc3C)c2n1", "note": "[Compound 69, ethyl 3-(2,6-dimethylphenyl)-7-cyclopentyl-2-methyl-8-hydropyrazolo[1,5-a]pyrimidine-5-carboxylate]", "EC50": "> 0.5"}, {"smiles": "Cc1cc(Cl)cc(C)c1-c1c(C)nn2c(C(C)C)cc(C(=O)O)nc12", "note": "[Compound 70, 3-(4-chloro-2,6-dimethylphenyl)-2-methyl-7-(methylethyl)-8-hydropyrazolo[1,5-a]pyrimidine-5-carboxylic acid]", "EC50": "> 0.5"}, {"smiles": "Cc1cccc(C)c1-c1c(C)nn2c(C3CC3)cc(C(=O)O)nc12", "note": "[Compound 71, 3-(2,6-dimethylphenyl)-7-cyclopropyl-2-methyl-8-hydropyrazolo[1,5-a]pyrimidine-5-carboxylic acid]", "EC50": "0.2 to 0.5"}, {"smiles": "CCc1cc(C(=O)O)nc2c(-c3c(C)cccc3C)c(C)nn12", "note": "[Compound 72, 3-(2,6-dimethylphenyl)-7-ethyl-2-methyl-8-hydropyrazolo[1,5-a]pyrimidine-5-carboxylic acid]", "EC50": "> 0.5"}, {"smiles": "CCOC(=O)c1cc(C(C)C)n2nc(C(C)C)c(-c3c(C)cccc3C)c2n1", "note": "[Compound 73, ethyl 2,7-bis(methylethyl)-3-(2,6-dimethylphenyl)-8-hydropyrazolo[1,5-a]pyrimidine-5-carboxylate]", "EC50": "> 0.5"}, {"smiles": "CCc1nn2c(C(C)C)cc(C(=O)O)nc2c1-c1c(C)cccc1C", "note": "[Compound 74, 3-(2,6-dimethylphenyl)-2-ethyl-7-(methylethyl)-8-hydropyrazolo[1,5-a]pyrimidine-5-carboxylic acid]", "EC50": "> 0.5"}, {"smiles": "Cc1cccc(C)c1-c1c(C)nn2c(C(C)C)cc(C(=O)NO)nc12", "note": "[Compound 75, 3-(2,6-dimethylphenyl)-2-methyl-7-(methylethyl)-8-hydropyrazolo[1,5-a]pyrimidine-5-carbohydroxamic acid]", "EC50": "0.1 to 0.2"}, {"smiles": "COc1cccc(C)c1-c1c(C)nn2c(C(C)C)cc(C(=O)O)nc12", "note": "[Compound 76, 3-(2-methoxy-6-methylphenyl)-2-methyl-7-(methylethyl)-8-hydropyrazolo[1,5-a]pyrimidine-5-carboxylic acid]", "EC50": "> 0.5"}, {"smiles": "CCOC(=O)c1cccc(C)c1-c1c(C)nn2c(C(C)C)cc(C(=O)O)nc12", "note": "[Compound 77, 3-[6-(ethoxycarbonyl)-2-methylphenyl]-2-methyl-7-(methylethyl)-8-hydropyrazolo[1,5-a]pyrimidine-5-carboxylic acid]", "EC50": "0.1 to 0.2"}, {"smiles": "CCOC(=O)c1cc(C(C)C)n2nc(-c3ccccc3)c(-c3c(C)cccc3C)c2n1", "note": "[Compound 78, ethyl 3-(2,6-dimethylphenyl)-7-(methylethyl)-2-phenyl-8-hydropyrazolo[1,5-a]pyrimidine-5-carboxylate]", "EC50": "> 0.5"}, {"smiles": "Cc1cccc(C)c1-c1c(-c2ccccc2)nn2c(C(C)C)cc(C(=O)O)nc12", "note": "[Compound 79, 3-(2,6-dimethylphenyl)-7-(methylethyl)-2-phenyl-8-hydropyrazolo[1,5-a]pyrimidine-5-carboxylic acid]", "EC50": "> 0.5"}, {"smiles": "Cc1cccc(C)c1-c1c(C(C)C)nn2c(C(C)C)cc(C(=O)O)nc12", "note": "[Compound 80, 2,7-bis(methylethyl)-3-(2,6-dimethylphenyl)-8-hydropyrazolo[1,5-a]pyrimidine-5-carboxylic acid]", "EC50": "> 0.5"}, {"smiles": "Cc1cccc(C)c1-c1c(C2CCC2)nn2c(C(C)C)cc(C(=O)O)nc12", "note": "[Compound 81, 3-(2,6-dimethylphenyl)-2-cyclobutyl-7-(methylethyl)-8-hydropyrazolo[1,5-a]pyrimidine-5-carboxylic acid]", "EC50": "> 0.5"}, {"smiles": "CCOC(=O)c1cc(-c2ccccc2)n2nc(C)c(-c3c(C)cccc3C)c2n1", "note": "[Compound 82, ethyl 3-(2,6-dimethylphenyl)-2-methyl-7-phenyl-8-hydropyrazolo[1,5-a]pyrimidine-5-carboxylate]", "EC50": "> 0.5"}, {"smiles": "Cc1cccc(C)c1-c1c(C)nn2c(-c3ccccc3)cc(C(=O)O)nc12", "note": "[Compound 83, 3-(2,6-dimethylphenyl)-2-methyl-7-phenyl-8-hydropyrazolo[1,5-a]pyrimidine-5-carboxylic acid]", "EC50": "> 0.5"}, {"smiles": "Cc1cccc(C)c1-c1c(C2CC2)nn2c(C(C)C)cc(C(=O)O)nc12", "note": "[Compound 84, 3-(2,6-dimethylphenyl)-2-cyclopropyl-7-(methylethyl)-8-hydropyrazolo[1,5-a]pyrimidine-5-carboxylic acid]", "EC50": "> 0.5"}, {"smiles": "Cc1cccc(C(=O)O)c1-c1c(C)nn2c(C(C)C)cc(C(=O)O)nc12", "note": "[Compound 85, 3-(2-carboxy-6-methylphenyl)-2-methyl-7-(methylethyl)-8-hydropyrazolo[1,5-a]pyrimidine-5-carboxylic acid]", "EC50": "> 0.5"}, {"smiles": "CCOC(=O)c1cc(C(C)C)n2nc(CO)c(-c3c(C)cccc3C)c2n1", "note": "[Compound 86, ethyl 3-(2,6-dimethylphenyl)-2-(hydroxymethyl)-7-(methylethyl)-8-hydropyrazolo[1,5-a]pyrimidine-5-carboxylate]", "EC50": "> 0.5"}, {"smiles": "Cc1cccc(C)c1-c1c(CO)nn2c(C(C)C)cc(C(=O)O)nc12", "note": "[Compound 87, 3-(2,6-dimethylphenyl)-2-(hydroxymethyl)-7-(methylethyl)-8-hydropyrazolo[1,5-a]pyrimidine-5-carboxylic acid]", "EC50": "> 0.5"}, {"smiles": "COCc1nn2c(C(C)C)cc(C(=O)OC)nc2c1-c1c(C)cccc1C", "note": "[Compound 88, methyl 3-(2,6-dimethylphenyl)-2-(methoxymethyl)-7-(methylethyl)-8-hydropyrazolo[1,5-a]pyrimidine-5-carboxylate]", "EC50": "> 0.5"}]}]}
